According to the CheMixHub drug solubility set:

Assay: xn = mol fraction of the nth substance listed, in the solute-free solvent

O=c1[nH]cc(F)c(=O)[nH]1 + CO + C1CCOC1
solubility (g/100 g solution)
Conditions | 283.15 K | 288.15 K | 293.15 K | 298.15 K | 303.15 K | 308.15 K | 313.15 K | 318.15 K | 323.15 K
x2 = 0.36 | 0.152 | 0.171 | 0.193 | 0.219 | 0.254 | 0.294 | 0.348 | 0.403 | 0.473
x2 = 0.6 | 0.283 | 0.317 | 0.356 | 0.407 | 0.472 | 0.546 | 0.639 | 0.745 | 0.862
x2 = 0.7714 | 0.423 | 0.483 | 0.552 | 0.636 | 0.73 | 0.876 | 1.04 | 1.23 | 1.42
x2 = 0.9 | 0.58 | 0.665 | 0.789 | 0.914 | 1.05 | 1.25 | 1.43 | 1.65 | 1.85

Clc1ncnc2[nH]ccc12 + C1CCOC1 + CO
solubility (g/100 g solution)
Conditions | 278.15 K | 283.15 K | 288.15 K | 293.15 K | 298.15 K | 303.15 K | 308.15 K | 313.15 K | 318.15 K | 323.15 K
x2 = 0.09054 | 4.18 | 4.85 | 5.59 | 6.45 | 7.41 | 8.85 | 9.6 | 10.8 | 12.2 | 13.6
x2 = 0.1993 | 6.2 | 7.11 | 8.13 | 9.15 | 10.3 | 11.6 | 12.9 | 14.3 | 15.9 | 17.4
x2 = 0.3323 | 8.17 | 9.22 | 10.3 | 11.4 | 12.7 | 14.1 | 15.4 | 17 | 18.5 | 20.2
x2 = 0.4107 | 8.75 | 9.76 | 10.9 | 12 | 13.4 | 14.6 | 16.1 | 17.5 | 19.1 | 20.7
x2 = 0.4989 | 9.02 | 10 | 11.1 | 12.2 | 13.5 | 14.8 | 16.1 | 17.5 | 18.9 | 20.5
x2 = 0.7134 | 8.95 | 9.87 | 10.8 | 11.8 | 13 | 14 | 15.2 | 16.5 | 17.7 | 19.1
